{"source": "paper PMC6315005", "about": "“5F-Cumyl-PINACA in ‘e-liquids’ for electronic cigarettes: comprehensive characterization of a new type of synthetic cannabinoid in a trendy product including investigations on the in vitro and in vivo phase I metabolism of 5F-Cumyl-PINACA and its non-fluorinated analog Cumyl-PINACA” (Forensic Toxicology, 2018)", "key": {"CB1": {"biological_target": "T1, CB1 (Homo sapiens, UniProt P21554)", "T1 construct": "purchased DiscoveRx (Fremont, CA, USA)", "T1 sequence (P21554 whole entry)": "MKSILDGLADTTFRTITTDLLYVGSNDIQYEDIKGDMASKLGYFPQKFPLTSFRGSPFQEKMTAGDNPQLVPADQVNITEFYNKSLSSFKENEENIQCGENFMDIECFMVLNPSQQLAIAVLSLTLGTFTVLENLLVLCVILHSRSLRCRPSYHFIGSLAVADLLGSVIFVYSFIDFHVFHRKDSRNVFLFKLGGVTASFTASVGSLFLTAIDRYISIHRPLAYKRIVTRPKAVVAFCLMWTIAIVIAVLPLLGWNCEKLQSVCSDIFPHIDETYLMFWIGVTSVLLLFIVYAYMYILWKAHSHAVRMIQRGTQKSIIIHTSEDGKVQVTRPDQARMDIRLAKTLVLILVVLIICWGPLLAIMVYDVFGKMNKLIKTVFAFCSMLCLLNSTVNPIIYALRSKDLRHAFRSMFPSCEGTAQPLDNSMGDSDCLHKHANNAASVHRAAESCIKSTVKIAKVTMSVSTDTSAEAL", "experiment": "cAMP biosensor assay with CB1 as target (DiscoveRx)", "type": "cell-based", "experimental": "Each compound was tested in duplicates; to induce response, 20 µM forskolin was used."}, "[1]": {"experiment": "Self-administration study, serum concentrations of Cumyl-PINACA (LC-MS/MS)", "type": "in vivo, human", "conditions": "0.6 mg oral, one volunteer", "excerpt": "For analysis of the serum samples, a routinely used LC–MS/MS screening method, currently covering 94 compounds with at least two ion transitions for each analyte and one ion transition for each internal standard in positive scheduled multiple reaction monitoring (+sMRM) was applied. Briefly, a QTRAP™ 4000 triple quadrupole linear ion trap instrument (Sciex, Darmstadt, Germany) equipped with a TurbolonSpray® interface and coupled to a Shimadzu Prominence HPLC system consisting of two LC-20 AD SP isocratic pumps, SIL 20 AC autosampler, CTO-20A controller (Shimadzu, Duisburg, Germany) and Analyst® software version 1.6.2 were used (Sciex). […] The total flow rate was 0.5 mL/min. The autosampler and the column oven temperatures were set to 10 and 40 °C, respectively. The monitored ion transitions used for Cumyl-PINACA were m/z 350→215 and 350→232.\nTo investigate the in vivo phase I metabolism of Cumyl-PINACA, one of the authors (75 kg person) ingested 0.6 mg Cumyl-PINACA orally. In addition to blank samples taken prior to ingestion, serum and urine samples were collected repeatedly over periods of 17 and 31 h after ingestion, respectively. All samples were stored at − 20 °C until analysis. In Germany, approval by an ethics committee is not required for scientific self-experiments.\nA 1-mL aliquot of a serum sample was spiked with 10 µL of an internal standard solution mixture (25 ng/mL each, ADBICA-d9, AKB48-d9, JWH-007-d9, JWH-015-d7, JWH-018-d11, JWH-073-d9, JWH-081-d9, JWH-122-d9, JWH-200-d5, JWH-210-d9, JWH-250-d5, JWH-398-d9, MAM-2201-d5, PB-22-d9, RCS-4-d9, UR-144-d5, XLR-11-d5). A 0.5-mL volume carbonate buffer (pH 10) and 1.5 mL of extraction mixture 1 (n-hexane/ ethyl acetate, 99:1, v/v) were added. After gentle mixing for 5 min, the sample was centrifuged and 1 mL of the supernatant was transferred to an HPLC vial. Subsequently, 1.5 mL of extraction mixture 2 (n-hexane/ethyl acetate, 80:20, v/v) was added to the residue, and the mixing and centrifugation steps were repeated. A 1-mL volume of the supernatant was added to the same HPLC vial, and after evaporation under a gentle stream of nitrogen at 40 °C and reconstitution in 100 µL of mobile phase (A/B, 80:20, v/v), the sample was analyzed using LC–MS/MS."}, "[2]": {"experiment": "Self-administration study, phase I metabolites of Cumyl-PINACA in urine (LC-MS/MS)", "type": "in vivo, human", "conditions": "0.6 mg Cumyl-PINACA oral"}, "CB1 receptors": {"system": "CB1 receptors", "set-up": "method as in PMID 28792725", "conditions": "mouse AtT-20 neuroblastoma cells, membrane potential; cited from earlier work"}, "CB2 receptors": {"system": "CB2 receptors", "set-up": "method as in PMID 28792725", "conditions": "mouse AtT-20 neuroblastoma cells, membrane potential; cited from earlier work"}, "CB1 receptor": {"system": "CB1 receptor", "set-up": "method as in PMID 29367862", "conditions": "[35S]GTPγS binding; cited from earlier work"}, "CB2 receptor": {"system": "CB2 receptor", "set-up": "method as in PMID 29367862", "conditions": "[35S]GTPγS binding; cited from earlier work"}}, "note": "“Also recorded” adds a separate entry of the source.", "data": [{"smiles": "CCCCCn1nc(C(=O)NC(C)(C)c2ccccc2)c2ccccc21", "note": "[Cumyl-PINACA, 1-pentyl-N-(2-phenylpropan-2-yl)-1H-indazole-3-carboxamide]", "values": [{"measurement": "EC50", "setting": "CB1", "result": 0.06, "unit": "nM"}, {"measurement": "relative potency among the tested substances", "setting": "CB1", "result": "most potent SC among the tested compounds; also recorded: most potent substance in this assay"}, {"measurement": "Curve top", "setting": "CB1; agonist format, 20 µM forskolin", "result": 93.7}, {"measurement": "Emax", "setting": "CB1; control ligand CP-55,940, read-out: Maximum response (compared to CP-55,940)", "result": 92.9, "unit": "%"}, {"measurement": "drug-related symptoms", "setting": "[1]", "result": "did not experience any drug-related symptoms"}, {"measurement": "maximum concentration measured in serum", "setting": "[1]", "result": 0.1, "unit": "ng/mL"}, {"measurement": "period of detection in serum", "setting": "[1]", "result": "about 17 h"}, {"measurement": "Tmax", "setting": "[1]; human, serum, read-out: time of maximum serum concentration after ingestion", "result": 6, "unit": "h"}, {"measurement": "detection of parent compound in urine", "setting": "[2]", "result": "not detected in urine"}, {"measurement": "potency of CB1 receptor activation compared to CP-55,940", "setting": "CB1 receptors", "result": "greater potency than CP-55,940"}, {"measurement": "potency of CB2 receptor activation compared to CP-55,940", "setting": "CB2 receptors", "result": "greater potency than CP-55,940"}, {"measurement": "CB1 activity compared to CP-55,940", "setting": "CB1 receptor", "result": "less activities as compared to CP-55,940"}, {"measurement": "CB2 activity compared to CP-55,940", "setting": "CB2 receptor", "result": "less activities as compared to CP-55,940"}]}]}
